pIC50: −log10 of the molar value.
Legend:
[1] = biological target: T1, 3-oxoacyl-[acyl-carrier-protein] synthase 3 (Escherichia coli, UniProt C3TDZ2); experiment: FabH Enzyme Assay; conditions: pH 7; 37 °C
T1 sequence (C3TDZ2 whole entry): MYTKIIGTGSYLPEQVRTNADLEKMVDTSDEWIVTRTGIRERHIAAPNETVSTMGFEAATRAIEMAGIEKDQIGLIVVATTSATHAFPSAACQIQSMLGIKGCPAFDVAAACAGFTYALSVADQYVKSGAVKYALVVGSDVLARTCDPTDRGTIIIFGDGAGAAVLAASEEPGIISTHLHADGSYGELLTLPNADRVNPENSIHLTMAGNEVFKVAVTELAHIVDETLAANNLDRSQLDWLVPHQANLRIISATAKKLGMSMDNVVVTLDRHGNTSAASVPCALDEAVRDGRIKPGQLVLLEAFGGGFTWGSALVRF
Method: (§1) Escherichia coli FabH assays were carried out using standard coupled trichloroacetic acid precipitation assay to determine the rate formation of radiolabeled 3-ketoacyl-ACP from malonyl-ACP. Mycobacterium tuberculosis FabH assay was done by sustituting malonyl-CoA for MACP.

[2] = biological target: T2, 3-oxoacyl-[acyl-carrier-protein] synthase 3 (Mycobacterium tuberculosis (strain CDC 1551 / Oshkosh), UniProt P9WNG2); experiment: FabH Enzyme Assay; conditions: pH 7; 37 °C
T2 sequence (P9WNG2 whole entry): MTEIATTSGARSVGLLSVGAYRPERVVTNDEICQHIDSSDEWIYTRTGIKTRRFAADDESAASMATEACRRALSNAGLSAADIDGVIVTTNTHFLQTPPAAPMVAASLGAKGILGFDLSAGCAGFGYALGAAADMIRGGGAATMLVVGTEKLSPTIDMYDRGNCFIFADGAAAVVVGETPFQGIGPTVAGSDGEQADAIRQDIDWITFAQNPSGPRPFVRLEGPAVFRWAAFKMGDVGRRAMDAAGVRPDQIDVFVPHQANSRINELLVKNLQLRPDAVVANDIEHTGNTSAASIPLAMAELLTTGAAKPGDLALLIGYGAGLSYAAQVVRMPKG
Method: as §1

Compound | pIC50 [1] | pIC50 [2]
CCCCSSCCNC(=O)CCNC(=O)C(O)C(C)(C)OP(=O)(O)OP(=O)(O)OCC1OC(n2cnc3c(N)ncnc32)C(O)C1OP(=O)(O)O (stereo not drawn) [Butyl-CoA disulfide 2] | < 3.52 | < 3.52
CCCCCCCCCCSSCCNC(=O)CCNC(=O)C(O)C(C)(C)OP(=O)(O)OP(=O)(O)OCC1OC(n2cnc3c(N)ncnc32)C(O)C1OP(=O)(O)O (stereo not drawn) [Decyl-CoA disulfide 5] | < 3.52 | 5.92
CSSCCNC(=O)CCNC(=O)C(O)C(C)(C)OP(=O)(O)OP(=O)(O)OCC1OC(n2cnc3c(N)ncnc32)C(O)C1OP(=O)(O)O (stereo not drawn) [Methyl-CoA disulfide 1] | 4.24 | < 3.52
CCCCCCCCSSCCNC(=O)CCNC(=O)C(O)C(C)(C)OP(=O)(O)OP(=O)(O)OCC1OC(n2cnc3c(N)ncnc32)C(O)C1OP(=O)(O)O (stereo not drawn) [Octyl-CoA disulfide 4] | < 3.52 | 4.52

From BindingDB's records for doi:10.1016/j.chembiol.2007.03.013 (Portland State University, 2007)
